The results in this text go back to PubChem BioAssay AID504702 (Southern Research Specialized Biocontainment Screening …, 2011).

Values joined by “and” are separate entries in the source; they are usually repeats but may differ in a detail not shown here. Identical values can stand only once. Active and inactive are the calls of the source. The rule behind the calls is not given here. Some results are limits rather than exact numbers.

Assay [1] deals with M. tuberculosis H37Rv with meropenem, growth inhibition. The experiment in a line: M. tuberculosis growth inhibition with meropenem, dose response, H37Rv, set 2 (AID 504702).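 For all read-outs here: growth read by Alamar Blue after 7 days plus overnight incubation.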 Conditions: for IC90: measured here: IC90 growth with meropenem.
Assay in assay [2]: as above
The note with it: M. tuberculosis H37Rv with meropenem, growth inhibition.

For `c1ccc(OCc2nnc(-c3ccccc3)o2)cc1`, in assay [1], the IC50 was 15 µM and 5.67 µM; the IC90 is above 25 µM.
As for `CCOc1ccc2c(ccn2-c2ccccc2)c1`, the growth inhibition in assay [2] (at 25 µM (top of the series)) is -1.15% (inactive).
The same measure, in the same setting: the value for `Cc1cc2cc(F)ccc2[nH]1` was 1.92% (inactive).
Consider `CCc1ccc2nc(/N=C(\N)NC(=O)c3ccccc3)nc(C)c2c1`, for which, in assay [1], the 50% inhibitory concentration (IC50) is 0.82 µM and the IC90 is above 25 µM.
In the case of `N/C(=N\c1nc2cc(Cl)ccc2o1)NC(=O)c1ccccc1`, the growth inhibition in assay [2] (at 25 µM (top of the series)) was -0.66% (inactive).
Still for that read-out and setting: the value for `Cc1cc2cc(Cl)ccc2[nH]1` was 0.31% (inactive).
The same measure, in the same setting: the value for `CC(Oc1ccccc1)C(=O)Nc1nc2ccc(S(C)(=O)=O)cc2s1` (configuration not stated) was -1.72% (inactive); that for `CC(C)(Oc1ccc(Cl)cc1)C(=O)Nc1nc2ccccc2s1` was 1.22% (inactive); that for `Cc1cccc(C)c1OCC(=O)Nc1nc2ccc(Cl)cc2s1` was -2.26% (inactive).
Turning to `Cc1ccccc1OCC(=O)Nc1ccccc1N1CCCCC1`, in assay [1], the half-maximal inhibitory concentration (IC50) is 6.13 µM and 8.97 µM; the IC90 is above 25 µM.
Regarding `CCOc1ccc2nc(NC(=O)Cc3ccc(OC)cc3)sc2c1`, the growth inhibition in assay [2] (at 25 µM (top of the series)) was -9.77% (inactive).
For the compound `COc1ccc(C(=O)Nc2ccc3nc(N4CCCCC4)cc(C)c3c2)c(OC)c1`, in assay [1], the IC50 was 17.6 µM and the IC90 is above 25 µM.
For the compound `COc1ccc2nc(NC(=O)C(C)Oc3ccccc3)sc2c1` (configuration not stated), the growth inhibition in assay [2] (at 25 µM (top of the series)) is -2.23% (inactive).
On the same count and under the same terms, the value for `CCC(=O)N/C(N)=N/c1nc2ccccc2o1` was -1.89% (inactive).
For the compound `O=C(CC12CC3CC(CC(C3)C1)C2)NCc1ccc(F)cc1`, the growth inhibition was -0.16% (inactive) in assay [2] (at 18.8 µM (top of the series)) and -0.41% (inactive) in assay [2] (at 25 µM (top of the series)).
With `O=C(CSc1n[nH]c(=O)n1C1CC1)c1ccc2c(c1)OCCO2`, in assay [1], the 50% inhibitory concentration (IC50) is 4.57 µM and the IC90 is above 25 µM.
On the same counts, the results for `Cc1ccccc1C(=O)Nc1nc2ccccc2[nH]1` are 8.75 µM and above 25 µM.
As to `O=C(O)CCC(=O)Nc1nc2ccccc2s1`, in assay [2] (at 25 µM (top of the series)), the growth inhibition is -2.73% (inactive).
In assay [1], `CCOc1ccc2[nH]cc(C(=O)OC)c2c1` showed a 90% effect concentration (IC90) above 25 µM.
As to `CC(Oc1ccc(Cl)cc1)C(=O)Nc1nc2ccccc2s1` (configuration not stated), the growth inhibition in assay [2] (at 25 µM (top of the series)) was -2.09% (inactive).
Consider `COC(=O)c1c(C)[nH]c2ccccc12`, for which, in assay [2] (at 25 µM (top of the series)), the growth inhibition is -4.94% (inactive).
On to `CC(C)Cn1c2c(c(O)c(C(=O)Nc3nccs3)c1=O)CCCC2`, for which the growth inhibition was 3.14% (inactive) in assay [2] (at 18.8 µM (top of the series)) and -0.17% (inactive) in assay [2] (at 25 µM (top of the series)).
On to `COC(=O)c1sc(-c2ccc(C(C)(C)C)cc2)cc1NC(=O)CCC(=O)O`, for which, in assay [1], the IC50 is 3.46 µM and 7.32 µM; the IC90 is above 25 µM.
Regarding `Cc1cccnc1NC(=S)NC(=O)c1cncc(Br)c1`, in assay [1], the 50% inhibitory concentration (IC50) was 2.71 µM and the IC90 is above 25 µM.
Turning to `O=C(COc1ccc2ccccc2c1)Nc1nc2ccccc2[nH]1`, in assay [1], the IC50 is 8.87 µM and the IC90 is above 25 µM.
Take `CC(=O)c1c(C)n(-c2ccccc2)c2ccc(OC(C)C)cc12`: the growth inhibition in assay [2] (at 25 µM (top of the series)) was 8.61% (inactive).
Still for that read-out and setting: for `Cc1ccc(OCC(=O)Nc2ccc(Cl)cc2)c(C)c1` the value was -3.91% (inactive); for `Cc1ccccc1OCC(=O)Nc1noc(-c2ccccc2)n1`, -4.18% (inactive).
As for `Cc1cc2cc(F)ccc2n1-c1ccccc1`, in assay [2] (at 25 µM (top of the series)), the growth inhibition was 5.53% (inactive).
`CCOc1ccc2c(c1)c(C(C)=O)c(C)n2-c1ccccc1`: in assay [1], the IC50 was 0.66 µM and 0.52 µM; the IC90 was > 18.8 µM and 2.79 µM.
Regarding `Cc1ccc2sc(NC(=O)COc3ccccc3)nc2c1C`, the growth inhibition in assay [2] (at 25 µM (top of the series)) is 14.4% (inactive).
In the case of `CC(=O)c1c(C)n(-c2ccccc2)c2ccc(O)cc12`, in assay [1], the IC50 was 20.1 µM and the IC90 was above 25 µM.
On the same counts, the results for `CC(=O)c1c(C)n(-c2ccccc2)c2ccccc12` are 11.6 µM and above 25 µM.
For the compound `CCC(CC)c1nnc(NC(=O)c2ccc(N3CCCCC3)c([N+](=O)[O-])c2)s1`, in assay [2] (at 25 µM (top of the series)), the growth inhibition is 2.49% (inactive).
On the same count and under the same terms, for `CCOc1ccc2nc(NC(=O)C(C)Oc3ccccc3F)sc2c1` (configuration not stated) the value was 2.03% (inactive); for `CCOc1ccc2nc(NC(=O)COc3ccc(F)cc3)sc2c1`, -3.93% (inactive).
In the case of `Cc1ccc(OCC(=O)Nc2cccc3ccccc23)c(C)c1`, in assay [1], the IC50 is 20.5 µM and the IC90 was above 25 µM.
`Cc1cc2cc(O)ccc2[nH]1`: in assay [2] (at 25 µM (top of the series)), the growth inhibition was 1.86% (inactive).
Same read-out and setting: for `CC(=O)c1c(C)n(-c2ccccc2C)c2ccc(O)cc12` the value was -1.1% (inactive); for `CCCOc1ccc2c(c1)c(C(C)=O)c(C)n2-c1ccccc1`, 20.4% (inactive).
In the case of `O=C(COC(=O)C1=COCCO1)Nc1ccc2c(c1)OCO2`, in assay [1], the IC50 is 9.76 µM and the IC90 is above 25 µM.
For `Cc1cc2cc(Cl)ccc2n1-c1ccccc1`, the growth inhibition in assay [2] (at 25 µM (top of the series)) is 16.5% (inactive).
The same measure, in the same setting: for `Cc1ccc(OCC(=O)Nc2nc3ccc(F)cc3s2)cc1` the value was -0.17% (inactive).
As to `Cc1ccc(C(C)C)c(OCC(=O)Nc2nc3ccccc3s2)c1`, the growth inhibition in assay [2] (at 25 µM (top of the series)) is -4.96% (inactive).
Still for that read-out and setting: for `Cc1ccccc1OCC(=O)Nc1ncccn1` the value was 3.04% (inactive); for `Cc1cccc(C)c1OCC(=O)Nc1nc2ccccc2s1`, -9.19% (inactive); for `O=C(COc1ccc(Cl)cc1)Nc1nc2ccc(F)cc2s1`, -1.17% (inactive).
On the same count and under the same terms, for `CCOc1ccc2nc(NC(=O)COc3ccccc3)sc2c1` the value was -8.57% (inactive).
Consider `COc1cccc(NC(=S)Nc2cc(C)cc(C)n2)c1`, for which, in assay [1], the IC50 is 7.2 µM and the IC90 was above 25 µM.
On to `Cc1ccccc1OCC(=O)Nc1ncn[nH]1`, for which the growth inhibition in assay [2] (at 25 µM (top of the series)) was 0.97% (inactive).
On the same count and under the same terms, for `Cc1cc2ccccc2n1-c1ccccc1` the value was -0.06% (inactive); for `Cc1ccccc1OCC(=O)Nc1nnn(C)n1`, 0.35% (inactive).
Still for that read-out and setting: for `COc1ccc2nc(NC(=O)c3oc4ccccc4c3C)sc2c1` the value was -4.34% (inactive).
Regarding `CCOc1ccc2c(c1)c(C(C)=O)c(C)n2-c1ccccc1Cl`, in assay [1], the IC50 is 13.6 µM and the concentration for an effect of 90% (IC90) was above 25 µM.
As for `O=C(Cc1csc(-c2ccccc2F)n1)Nc1nc2ccccc2[nH]1`, the growth inhibition in assay [2] (at 25 µM (top of the series)) is 1.69% (inactive).
`c1ccc(Nc2ncnc3c2oc2ccccc23)cc1`: in assay [1], the IC50 was 5.29 µM and the IC90 is above 25 µM.
Consider `Cc1cc(C)c(OCC(=O)Nc2nc3ccccc3s2)c(Cl)c1`, for which the growth inhibition in assay [2] (at 25 µM (top of the series)) is -6.55% (inactive).
Still for that read-out and setting: for `COc1ccc2[nH]c(C)cc2c1` the value was 0.56% (inactive).
Still for that read-out and setting: for `Cc1cc2ccccc2[nH]1` the value was 0.33% (inactive).
Turning to `O=C(Nc1ccccc1)Nc1csc2ccccc12`, in assay [1], the IC50 is 0.49 µM and 0.2 µM; the IC90 is above 25 µM.
For the compound `COc1ccc2c(c1)cc(C)n2-c1ccccc1`, in assay [1], the IC50 was 6.88 µM and the IC90 was above 25 µM.
For `CCOc1ccc2c(c1)c(CC)c(C)n2-c1ccccc1`, in that order: 4.42 µM and above 25 µM.
Regarding `CCOC(=O)COc1nc(-c2ccc(Cl)cc2)cc(-c2ccco2)c1C#N`, in assay [1], the IC50 was 6.8 µM and 4.07 µM; the concentration for an effect of 90% (IC90) is above 25 µM.
Consider `Cc1onc(-c2c(Cl)cccc2Cl)c1/C(N)=N/OC(=O)C1CC1`, for which, in assay [1], the IC50 was 1.47 µM and the IC90 was above 25 µM.
For `N/C(=N\c1nc2ccccc2o1)NC(=O)c1ccccc1Br`, in that order: 3.04 µM and above 25 µM.
For `O=C(CCS(=O)(=O)c1ccc(F)cc1)Nc1nnc(-c2cccs2)o1`, in assay [1], the IC50 is 22.4 µM and the IC90 was above 25 µM.
Take `N/C(=N\c1nc2ccccc2o1)NC(=O)c1ccc(F)cc1`: in assay [1], the IC50 is 9.64 µM and the IC90 was above 25 µM.
On to `Cc1c(OCc2ccc(C(=O)O)cc2)ccc2c(-c3ccccc3)cc(=O)oc12`, for which, in assay [1], the IC50 is 3.3 µM and 3.99 µM; the IC90 was above 25 µM.
For `CC(=O)c1c(C)n(-c2ccccc2)c2ccc(OS(=O)(=O)C(F)(F)F)cc12`, the IC90 in assay [1] is above 25 µM.
`CCOc1ccc2c(c1)c(C(C)=O)c(C)n2-c1cccc(Cl)c1`: in assay [1], the half-maximal inhibitory concentration (IC50) is 10.5 µM and the IC90 was above 25 µM.
For `OCCCc1cn(-c2ccccc2)c2ccccc12`, in that order: 14.2 µM and above 25 µM.
For `COC(=O)c1c(C)n(-c2ccccc2)c2ccc(O)cc12`, in that order: 8.43 µM and above 18.8 µM.
On the same counts, the results for `CN(NC(=O)c1c(Cl)cccc1Cl)c1cccc(Cl)n1` are 15.5 µM and above 25 µM.
Turning to `O=C(Nc1nc2ccccc2[nH]1)c1ccc(Cl)c(Cl)c1`, in assay [1], the IC50 is 0.81 µM and the IC90 is above 25 µM.
Take `COc1cccc(NC(=O)C2CC2)c1`: in assay [1], the IC50 was 0.58 µM and 3.28 µM; the IC90 was above 25 µM.
With `Cc1ccc(OCC(=O)Nc2ccc3c4c(cccc24)CC3)c(C)c1`, in assay [1], the IC50 was 0.91 µM and 6.11 µM; the IC90 is above 25 µM.
With `COc1ccc2c(c1)c(C(C)=O)c(C)n2-c1ccccc1`, in assay [1], the IC50 was 0.53 µM and 1.3 µM; the IC90 is above 18.8 µM.
In the case of `CCOc1ccc2c(c1)c(C(C)=O)c(C)n2-c1ccccc1C`, in assay [1], the IC50 is 3.43 µM and the IC90 is 12.1 µM.
For `O=C(OC(C(=O)Nc1ccc(Cl)cc1C(F)(F)F)c1ccccc1)C1=COCCO1` (configuration not stated), in that order: 3.17 µM and above 25 µM.
On the same counts, the results for `COc1ccc(Cl)cc1C(=O)Nc1nc2ccccc2[nH]1` are 16.2 µM and above 25 µM.
Turning to `O=C(COC(=O)C1CC1)c1c[nH]c2ccccc12`, in assay [1], the IC50 is 0.25 µM and 0.64 µM; the IC90 was above 25 µM.
Consider `COc1ccc2oc(C(=O)Nc3nc4ccccc4[nH]3)c(C)c2c1`, for which the concentration for an effect of 90% (IC90) in assay [1] is above 25 µM.
Same read-out and setting: for `CCOC(=O)c1cnc2cc(-c3ccc(C(C)(C)C)cc3)nn2c1N` the value was above 25 µM.
As to `CCOc1ccc2nc(NC(=O)C3(c4ccccc4)CCCC3)sc2c1`, in assay [1], the half-inhibitory concentration (IC50) was 1.2 µM and the IC90 was 4.16 µM.
For `CCOc1ccc2c(c1)cc(C)n2-c1ccccc1`, in assay [1], the IC50 is 11.5 µM and the IC90 is above 25 µM.
